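Protocol summary: plate cells (96-well), add compound at 5 concentrations, incubate 48 h, interpolate endpoints linearly. GI50 marks 50% less growth. TGI: concentration producing complete growth inhibition.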
How the values were obtained:
Assay in all cases: growth of human tumour cells (NCI), 48 h
786-0 renal = test system: 786-0 renal
COLO 205 colon = test system: COLO 205 colon
HOP-92 NSCLC = test system: HOP-92 NSCLC
NCI-H226 lung = test system: NCI-H226 lung
NCI-H460 lung = test system: NCI-H460 lung
SF-295 CNS = test system: SF-295 CNS
SK-MEL-5 melanoma = test system: SK-MEL-5 melanoma
SN12C renal = test system: SN12C renal
SW-620 colon = test system: SW-620 colon
UO-31 renal = test system: UO-31 renal

Q: For CN=c1ss/c(=N\C(=S)N(C)C)n1C1CCCCC1, which TGI (786-0 renal) is on record?
A: The TGI was over 10 µM.

Q: What about the TGI (COLO 205 colon) of the same compound?
A: Its TGI is over 31.6 µM.

Q: And the TGI (HOP-92 NSCLC)?
A: The TGI was over 10 µM.

Q: And the TGI (NCI-H226 lung)?
A: The TGI was over 31.6 µM.

Q: And the TGI (NCI-H460 lung)?
A: The TGI was over 31.6 µM.

Q: What about the TGI (SF-295 CNS) of the same compound?
A: Its TGI is over 31.6 µM.

Q: What about the TGI (SK-MEL-5 melanoma) of the same compound?
A: The TGI was over 31.6 µM.

Q: And the TGI (SN12C renal)?
A: Its TGI is over 31.6 µM.

Q: What about the TGI (SW-620 colon) of the same compound?
A: Its TGI is over 31.6 µM.

Q: And the TGI (UO-31 renal)?
A: The TGI was over 31.6 µM.

Q: With C=C1C(=O)O[C@H]2[C@H]1CC/C(COC(=O)c1cccc3ccccc13)=C\CC[C@@]1(C)O[C@@H]21 as the compound, how does the GI50 (786-0 renal) read?
A: Its GI50 is 1.69 µM.

Q: And the TGI (786-0 renal)?
A: Its TGI is 3.22 µM.

Q: And the GI50 (COLO 205 colon)?
A: The GI50 was 1.64 µM.

Q: And the TGI (COLO 205 colon)?
A: Its TGI is 3.16 µM.

Q: What about the GI50 (HOP-92 NSCLC) of the same compound?
A: The GI50 was 1.01 µM.

Q: What about the TGI (HOP-92 NSCLC) of the same compound?
A: The TGI was 2.61 µM.

Q: And the GI50 (NCI-H226 lung)?
A: Its GI50 is 1.29 µM.

Q: And the TGI (NCI-H226 lung)?
A: Its TGI is 2.83 µM.

Q: And the GI50 (NCI-H460 lung)?
A: The GI50 was 2.16 µM.

Q: And the TGI (NCI-H460 lung)?
A: Its TGI is 4.84 µM.

Q: And the GI50 (SF-295 CNS)?
A: Its GI50 is 2.47 µM.

Q: And the TGI (SF-295 CNS)?
A: The TGI was 10.2 µM.

Q: What about the GI50 (SK-MEL-5 melanoma) of the same compound?
A: The GI50 was 1.62 µM.

Q: What about the TGI (SK-MEL-5 melanoma) of the same compound?
A: The TGI was 2.98 µM.

Q: What about the GI50 (SN12C renal) of the same compound?
A: Its GI50 is 1.73 µM.

Q: And the TGI (SN12C renal)?
A: Its TGI is 3.67 µM.

Q: And the GI50 (SW-620 colon)?
A: Its GI50 is 1.08 µM.

Q: And the TGI (SW-620 colon)?
A: The TGI was 2.87 µM.

Q: What about the GI50 (UO-31 renal) of the same compound?
A: The GI50 was 1.44 µM.

Q: What about the TGI (UO-31 renal) of the same compound?
A: The TGI was 2.76 µM.

Q: For CC1=C(C(=O)Nc2cccc(C(F)(F)F)c2)C(c2ccccc2F)C(C(=O)Nc2cccc(C(F)(F)F)c2)=C(C)N1, which TGI (786-0 renal) is on record?
A: Its TGI is 19.4 µM.

Q: And the TGI (COLO 205 colon)?
A: Its TGI is 20.5 µM.

Q: And the TGI (HOP-92 NSCLC)?
A: The TGI was 9.11 µM.

Q: And the TGI (NCI-H226 lung)?
A: The TGI was 18.4 µM.

Q: What about the TGI (NCI-H460 lung) of the same compound?
A: Its TGI is 21.8 µM.

Q: What about the TGI (SF-295 CNS) of the same compound?
A: Its TGI is 20.3 µM.

Q: What about the TGI (SK-MEL-5 melanoma) of the same compound?
A: The TGI was 18 µM.

Q: And the TGI (SN12C renal)?
A: Its TGI is 23.9 µM.

Q: What about the TGI (SW-620 colon) of the same compound?
A: The TGI was 22.7 µM.

Q: What about the TGI (UO-31 renal) of the same compound?
A: The TGI was 17.3 µM.
